This note sets out measurements from ChEMBL document CHEMBL2203143, “Synthesis and antiproliferative activities of ottelione a analogues” (ACS Med Chem Lett, 2012).

Each structure is given as a SMILES string. Active and inactive are the calls of the source. The rule behind the calls is not given here.

In one test the test system is HCT-116. The test can be described thus: Antiproliferative activity against human HCT116 cells assessed as cell viability after 72 hrs by CellTiter96 assay. The test is classed as functional, cell-based. The note with it: HCT-116, 72 h.
Test [1] concerns MCF7. The test can be described thus: Antiproliferative activity against human MCF7 cells assessed as cell viability after 72 hrs by CellTiter96 assay. The test is classed as functional, cell-based. The note with it: MCF7, 72 h.
Test [2] deals with COLO 205. The test is described as follows: Antiproliferative activity against human COLO205 cells assessed as cell viability after 72 hrs by CellTiter96 assay. The test is classed as functional, cell-based. The note with it: COLO 205, 72 h.
In test [3] the test system is NCI-H460. The test can be described thus: Antiproliferative activity against human NCI-H460 cells assessed as cell viability after 72 hrs by CellTiter96 assay. The test is classed as functional, cell-based. The settings on record: NCI-H460, 72 h.
A further test deals with A-375. The test is described as follows: Antiproliferative activity against human A375 cells assessed as cell viability after 72 hrs by CellTiter96 assay. Format: functional, cell-based. The settings on record: A-375, 72 h.
The next test deals with KB. The test can be described thus: Antiproliferative activity against human KB cells assessed as cell viability after 72 hrs by CellTiter96 assay. The test is classed as functional, cell-based.
The target in test [4] is T1, Tubulin (Sus scrofa) (UniProt P02554+P02550). The test can be described thus: Displacement of [3H]colchicine from tubulin in pig brain at 10 uM after 16 hrs by scintillation proximity assay. In general terms: Displacement assays read how much labelled ligand stays bound in the presence of the test substance.
Test [5] relates to MCF7. The test is described as follows: Ratio of ottelione A IC50 to compound IC50 for human MCF7 cells after 72 hrs by CellTiter96 assay. Format: functional.
Test [6] concerns NCI-H460. The test can be described thus: Ratio of ottelione A IC50 to compound IC50 for human NCI-H460 cells after 72 hrs by CellTiter96 assay. Format: functional.
Test [7] deals with COLO 205. The test is described as follows: Ratio of ottelione A IC50 to compound IC50 for human COLO205 cells after 72 hrs by CellTiter96 assay. Format: functional.
Test [8] concerns the target T1, Tubulin (Sus scrofa). The test can be described thus: Inhibition of pig neuronal tubulin polymerization at 10 uM by fluorescence analysis. Format: protein assay.

T1 sequence (P02550 whole entry, looked up): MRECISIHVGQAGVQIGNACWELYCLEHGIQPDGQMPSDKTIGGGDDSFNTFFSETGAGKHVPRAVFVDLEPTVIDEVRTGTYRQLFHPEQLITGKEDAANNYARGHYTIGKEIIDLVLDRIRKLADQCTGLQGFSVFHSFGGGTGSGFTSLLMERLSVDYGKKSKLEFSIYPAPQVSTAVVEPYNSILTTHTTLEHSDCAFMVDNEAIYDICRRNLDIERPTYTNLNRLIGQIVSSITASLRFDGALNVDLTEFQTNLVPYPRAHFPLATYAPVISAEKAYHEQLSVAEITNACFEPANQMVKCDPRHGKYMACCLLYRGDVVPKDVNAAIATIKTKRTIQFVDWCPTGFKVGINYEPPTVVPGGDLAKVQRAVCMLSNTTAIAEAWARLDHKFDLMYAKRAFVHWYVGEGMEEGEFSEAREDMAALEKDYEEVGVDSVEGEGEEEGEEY
T1 sequence (P02554 whole entry, looked up): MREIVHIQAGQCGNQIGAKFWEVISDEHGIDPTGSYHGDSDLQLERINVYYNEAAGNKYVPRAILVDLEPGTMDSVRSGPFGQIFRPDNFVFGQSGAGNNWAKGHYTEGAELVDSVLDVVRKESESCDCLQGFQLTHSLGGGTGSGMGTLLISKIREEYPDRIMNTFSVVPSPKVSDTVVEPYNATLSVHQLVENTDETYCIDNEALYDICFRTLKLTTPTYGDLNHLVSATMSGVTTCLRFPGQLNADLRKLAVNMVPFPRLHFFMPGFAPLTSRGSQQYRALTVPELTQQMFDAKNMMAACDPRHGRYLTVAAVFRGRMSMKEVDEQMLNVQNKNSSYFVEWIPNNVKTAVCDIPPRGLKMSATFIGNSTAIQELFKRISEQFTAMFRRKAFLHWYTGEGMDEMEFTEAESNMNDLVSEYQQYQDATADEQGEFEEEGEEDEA

`COc1ccc(C[C@@H]2CC[C@@H]3CC=CC(=O)[C@@H]32)cc1O` (racemic): the IC50 is over 1000 nM in the test on HCT-116; over 1000 nM with MCF7 [1]; over 1000 nM with COLO 205 [2]; over 1000 nM in the test with NCI-H460 [3]; 914 nM in the test with A-375; over 1000 nM in the test on KB. On Tubulin (Sus scrofa) [4], the inhibition came out at 39.2%.

As for `C=C1C=CC(=O)[C@@H]2[C@H](Cc3ccc(OC)c(F)c3)CC[C@H]12` (racemic), the “Ratio IC50” value with MCF7 [5], with NCI-H460 [6] and with COLO 205 [7] was 6 each time. The IC50 with HCT-116 amounted to 1.11 nM; in the test with MCF7 [1], 0.13 nM; with COLO 205 [2], 2.45 nM; with NCI-H460 [3], 2.62 nM; with A-375, 1.68 nM; in the test with KB it was 2.77 nM. Besides, on Tubulin (Sus scrofa) [8], the inhibition entry was “Active”. This compound also displayed an inhibition on Tubulin (Sus scrofa) [4] of 97.1%.

On to `C=C1C=CC(=O)[C@@H]2[C@H](Cc3ccc(OCOC)c(F)c3)CC[C@H]12` (racemic), for which the IC50 in the test on HCT-116 was found to be 77.4 nM; in the test with MCF7 [1], 77.2 nM; with COLO 205 [2], 75.7 nM; in the test on NCI-H460 [3], 106 nM; in the test on A-375 it was 40 nM; in the test on KB, 76.6 nM. On Tubulin (Sus scrofa) [4], this compound showed an inhibition of 68.9%.

`C=C1C=CC(=O)[C@@H]2[C@H](Cc3ccc(OC)c(O)c3)CC[C@H]12` (racemic): the IC50 in the test on HCT-116 came out at 3.01 nM; in the test on MCF7 [1], 3.73 nM; in the test with COLO 205 [2], 244 nM; with NCI-H460 [3], 16 nM; with A-375, 1.07 nM; in the test on KB, 4.94 nM. Also, on Tubulin (Sus scrofa) [8], the inhibition result was “Active”. The compound also gave an inhibition at Tubulin (Sus scrofa) [4] of 95.8%.

With `C=C1C=CC(=O)[C@@H]2[C@H](Cc3ccccc3)CC[C@H]12` (racemic), the half-maximal inhibitory concentration (IC50) amounted to 257 nM in the test with HCT-116; 260 nM in the test on MCF7 [1]; 547 nM in the test with COLO 205 [2]; 678 nM with NCI-H460 [3]; 237 nM in the test with A-375; 591 nM in the test on KB. At Tubulin (Sus scrofa) [4], this compound showed an inhibition of 43.2%.

Consider `C=C1C=CC(=O)[C@@H]2[C@H](Cc3ccc(OCOC)cc3)CC[C@H]12` (racemic), for which the half-maximal inhibitory concentration (IC50) with HCT-116 was 129 nM; in the test with MCF7 [1], 63.6 nM; with COLO 205 [2], 219 nM; in the test with NCI-H460 [3], 226 nM; with A-375 it was 77.4 nM; with KB it was 208 nM. Besides, the inhibition on Tubulin (Sus scrofa) [4] was found to be 69.3%.

In the case of `C=C1C=CC(=O)[C@@H]2[C@H](Cc3cc(OC)c(OC)c(OC)c3)CC[C@H]12` (racemic), the concentration for half-maximal inhibition (IC50) with HCT-116, with MCF7 [1], with COLO 205 [2], in the test on NCI-H460 [3], in the test with A-375 and with KB was over 1000 nM throughout. On Tubulin (Sus scrofa) [4], this compound had an inhibition of 8.93%.

On to `C=C1C=CC(=O)[C@@H]2[C@H](Cc3ccc(O)cc3)CC[C@H]12` (racemic), for which the IC50 was 38.5 nM in the test on HCT-116; 33.8 nM in the test on MCF7 [1]; 218 nM with COLO 205 [2]; 77.6 nM in the test on NCI-H460 [3]; 30.8 nM in the test with A-375; 68.8 nM in the test on KB. On Tubulin (Sus scrofa) [4], the inhibition turned out to be 71.6%.

For the compound `C=C[C@@H]1C[C@@H](Cc2ccc(OC)c(O)c2)[C@H]2C(=O)C=CC(=C)[C@H]21` (racemic), the IC50 in the test with HCT-116 amounted to 0.74 nM; in the test on MCF7 [1] it was 1.17 nM; with COLO 205 [2], 92.8 nM; in the test with NCI-H460 [3], 14.5 nM; in the test on A-375, 0.4 nM; with KB, 1.59 nM. In addition, the inhibition result at Tubulin (Sus scrofa) [8] is “Active”. Besides, the inhibition on Tubulin (Sus scrofa) [4] is 98.3%.

On to `CC=C1C=CC(=O)[C@@H]2[C@H](Cc3ccc(OC)c(O)c3)CC[C@H]12` (racemic), for which the IC50 worked out at 14 nM with HCT-116; 26.3 nM with MCF7 [1]; 739 nM in the test on COLO 205 [2]; 24.6 nM with NCI-H460 [3]; 9.2 nM in the test on A-375; 22.6 nM with KB. The compound further showed an inhibition on Tubulin (Sus scrofa) [4] of 96.1%.

In the case of `C=C1C=CC(=O)[C@@H]2[C@H](Cc3ccc(F)c(F)c3)CC[C@H]12` (racemic), the IC50 turned out to be 235 nM in the test with HCT-116; 233 nM in the test with MCF7 [1]; 428 nM in the test on COLO 205 [2]; 511 nM in the test with NCI-H460 [3]; 222 nM in the test on A-375; 478 nM with KB. For the same compound, the inhibition at Tubulin (Sus scrofa) [4] turned out to be 61.7%.

In the case of `C=C1C=CC(=O)[C@@H]2[C@H](Cc3ccc(O)c(F)c3)CC[C@H]12` (racemic), the IC50 in the test on HCT-116 was 126 nM; in the test on MCF7 [1], 147 nM; with COLO 205 [2], 3000 nM; in the test on NCI-H460 [3] it was 229 nM; in the test with A-375, 98.4 nM; in the test with KB it was 156 nM. Also, the inhibition on Tubulin (Sus scrofa) [4] was found to be 37.3%.

Broadly, the IC50 is the point on the concentration scale where inhibition reaches its midpoint. The term inhibition denotes how much of the control response was suppressed.
